Patent US4296108A, “2,2-Dichlorocyclopropyl-methyl-phosphoric acid derivatives” (priority 1979, dated 1981)

Key:
Type in all cases: in vivo
[1] = tested on: ticks (Ornithodorus moubata); test: Contact action on ticks (Ornithodorus moubata); conditions: 3rd larval stage, 48 hours
Method: Contact action on ticks (Ornithodorus moubata)
Ticks in the 3rd larval stage are placed in paper bags and dipped for 3 seconds in the emulsion under investigation. The bags are then suspended. The action on the ticks is assessed after 48 hours.

[2] = tested on: cockroaches (Blatta orientalis); test: whole plant or invertebrate; conditions: 48 hours; for mortality at 0.1 mg: 0.1 mg active ingredient per jar; for mortality at 0.2 mg: 0.2 mg active ingredient per jar
Method: Contact action on cockroaches (Blatta orientalis)
The bottom of 1-liter preserving jars is treated with acetonic solutions of the active ingredients. After the solvent has evaporated, 5 adult cockroaches are placed in each jar, and the kill rate is determined after 48 hours.

[3] = tested on: houseflies (Musca domestica); test: whole plant or invertebrate; conditions: 4 hours; for mortality at 0.02 mg: 0.02 mg active ingredient per dish
Method: Continuous contact action on houseflies (Musca domestica)
Both covers and bottoms of Petri dishes 10 cm in diameter are lined with a total per dish of 2 ml of acetonic solutions of the active ingredients. After the solvent has evaporated (about 30 mins.), 10 flies are introduced into each dish. The kill rate is determined after 4 hours.

[4] = tested on: houseflies (Musca domestica); test: Contact action on houseflies (Musca domestica), topical to ventral abdomen; conditions: 1 μl in acetone to ventral abdomen; 4-day old imagoes; 4 hours; worked out by graph
Method: Contact action on houseflies (Musca domestica)
1 μl of the active ingredients dissolved in acetone is administered by means of a microsyringe to the ventral abdomen of 4-day old imagoes under slight CO2 narcosis.
20 animals treated in the same way are then placed in a plastic bag having a volume of approx. 500 ml. After 4 hours, the animals in supine position are counted and the LD50 is worked out by means of a graph.

[5] = tested on: bean aphids (Aphis fabae); test: Contact action on bean aphids (Aphis fabae); spray experiment; conditions: 48 hours; for mortality at 0.005 %: 0.005 wt % in formulation; for mortality at 0.01 %: 0.01 wt % in formulation
Method: Contact action on bean aphids (Aphis fabae); spray experiment
Potted bean plants (Vicia faba) with extensive bean aphid colonies are sprayed to runoff in a spray booth with aqueous formulations of the active ingredients.
(§1) The action is assessed after 48 hours.

[6] = tested on: caterpillars of the diamondback moth (Plutella maculipennis); test: Contact action and effect of ingested food on caterpillars of the diamondback moth (Plutella maculipennis); conditions: 4th stage caterpillars, 48 hours, read-out: Kill rate; for mortality at 0.001 %: 0.001 wt % in emulsion; for mortality at 0.002 %: 0.002 wt % in emulsion; for mortality at 0.02 %: 0.02 wt % in emulsion; for mortality at 0.01 %: 0.01 wt % in emulsion
Method: Contact action and effect of ingested food on caterpillars of the diamondback moth (Plutella maculipennis)
Leaves of young cabbage plants are dipped for 3 seconds in aqueous emulsions of the active ingredients and, after excess liquid has been briefly allowed to drip off, placed on a moist filter paper in a Petri dish. 10 caterpillars of the 4th stage are then placed on each leaf.
as §1

[7] = tested on: root-knot nematodes (Meloidogyne incognita); test: Action on root-knot nematodes (Meloidogyne incognita); conditions: cucumber, 6 to 8 weeks
Method: Action on root-knot nematodes (Meloidogyne incognita)
Garden soil heavily infested with Meloidogyne incognita is split into 200 g portions which are intimately mixed with 30 ml of aqueous active ingredient formulations and filled into plastic pots. Two cucumber seeds are then placed in the soil prepared in this manner. The temperature is not allowed to go below +22° C.
After 6 to 8 weeks root attack is assessed.

[8] = Musca domestica, read-out: Kill rate
[9] = Aphis fabae, read-out: Kill rate
[10] = Blatta orientalis, read-out: Kill rate
[11] = Musca domestica, 0.2 mg active ingredient per dish, read-out: Kill rate
[12] = Aphis fabae, 0.02 wt % in formulation, read-out: Kill rate

`COP(=O)(OCC1C(C)(C)C1(Cl)Cl)Oc1ccc(SC)c(C)c1` (centres unmarked) [compound 20] gave a Kill rate ([1]; 2.5 ppm in emulsion) of 100%.
`COP(=O)(OCC1CC1(Cl)Cl)Oc1ccc([N+](=O)[O-])cc1` (centres unmarked) [compound 27] showed a mortality at 0.02 mg ([2]; Blatta orientalis, 0.02 mg active ingredient per jar, read-out: Kill rate) of 80%, a mortality at 0.02 mg [3, 8] of 100% and an LD50 [4] of 0.057 μg/fly. The mortality at 0.005 % [5, 9] was ~90%, the mortality at 0.001 % [6] was 100% and the Kill rate ([1]; 1.0 ppm in emulsion) was 100%.
Work on `COP(=O)(OCC1(C)CC1(Cl)Cl)Oc1ccc(SC)cc1` (centres unmarked) [compound 21] yielded a mortality at 0.1 mg [2, 10] of 100%, a mortality at 0.2 mg [3, 11] of 100% and a Kill rate ([1]; 1.0 ppm in emulsion) of 100%.
`COP(=O)(OCC1CC1(Cl)Cl)Oc1ccc(Cl)cc1Cl` (centres unmarked) [compound 26] showed a mortality at 0.2 mg [3, 11] of 100% and a mortality at 0.02 % [5, 12] of 100%.
`COP(=O)(OCC1CC1(Cl)Cl)Oc1ccc(C#N)cc1` (centres unmarked) [compound 23] showed a mortality at 0.1 mg [2, 10] of 100%, a mortality at 0.02 mg [3, 8] of 100% and an LD50 [4] of 0.073 μg/fly. The mortality at 0.005 % [5, 9] was ~90%, the mortality at 0.001 % [6] was 80% and the Kill rate ([1]; 1.0 ppm in emulsion) was 100%.
`COP(=O)(OCC1CC1(Cl)Cl)Oc1ccc(SC)c(C)c1` (centres unmarked) [compound 25] gave a mortality at 0.2 mg [2, 10] of 100%, a mortality at 0.02 mg [3, 8] of 80% and a mortality at 0.005 % [5, 9] of 100%. It also gave a mortality at 0.002 % [6] of 80% and a Kill rate ([1]; 10.0 ppm in emulsion) of 100%.
`CCOP(=O)(OCC1C(C)(C)C1(Cl)Cl)Oc1ccc(SC)cc1` (centres unmarked) [compound 18] showed a Kill rate ([1]; 2.5 ppm in emulsion) of 100%.
For `COP(=O)(OCC1C(C)(C)C1(Cl)Cl)Oc1ccccc1[N+](=O)[O-]` (centres unmarked) [compound 14], the Kill rate ([1]; 10.0 ppm in emulsion) was 100%.
`COP(=O)(OCC1C(C)C1(Cl)Cl)Oc1cc(Cl)c(Cl)cc1Cl` (centres unmarked) [compound 28] was tested, and the mortality at 0.2 mg [3, 11] was 80% and the mortality at 0.02 % [5, 12] was 100%.
For `COP(=S)(OC)Oc1cc(Cl)c(Cl)cc1Cl` [III], the mortality at 0.5 mg ([2]; Blatta orientalis, 0.5 mg active ingredient per jar, read-out: Kill rate) was 100%, the LD50 [4] was 0.13 μg/fly and the mortality at 0.02 % [6] was 50%.
In the case of `CCOP(=S)(Oc1ccc(Cl)cc1Cl)c1ccccc1` (centres unmarked) [II], the Kill rate ([2]; 1.0 mg active ingredient per jar) is reported as “ineffective”, the Kill rate ([3]; 0.2 mg active ingredient per dish) is reported as “ineffective” and the Kill rate ([5]; 0.02 wt % in formulation) is reported as < 80%.
For `COP(=O)(OCC1(C)CC1(Cl)Cl)Oc1cc(Cl)c(Cl)cc1Cl` (centres unmarked) [compound 16], the “root attack (root-knots)” value ([7]; 0.05 % active ingredient concentration) was “no root-knots”.
Work on `CCOP(=O)(OCC1C(C)(C)C1(Cl)Cl)Oc1ccc(SC)c(C)c1` (centres unmarked) [compound 19] yielded a Kill rate ([1]; 10.0 ppm in emulsion) of 100%.
`COP(=O)(OCC1(C)CC1(Cl)Cl)Oc1ccc([N+](=O)[O-])c(C)c1` (centres unmarked) [compound 33] gave a mortality at 0.2 mg [3, 11] of 80% and a mortality at 0.01 % [5, 9] of 100%.
`COP(=O)(OCC1(C)CC1(Cl)Cl)Oc1ccc([N+](=O)[O-])cc1` (centres unmarked) [compound 10] was tested, and the mortality at 0.04 mg ([2]; Blatta orientalis, 0.04 mg active ingredient per jar, read-out: Kill rate) was 100%, the mortality at 0.2 mg [3, 11] was 100% and the mortality at 0.01 % [5, 9] was 100%. For the same compound, the mortality at 0.01 % [6] was 100% and the Kill rate ([1]; 10.0 ppm in emulsion) was 100%.
`COP(=O)(OCC1CC1(Cl)Cl)Oc1ccc(SC)cc1` (centres unmarked) [compound 24] gave a mortality at 0.1 mg [2, 10] of 100%, a mortality at 0.02 mg [3, 8] of 100% and an LD50 [4] of 0.051 μg/fly. For the same compound, the mortality at 0.002 % ([5]; Aphis fabae, 0.002 wt % in formulation, read-out: Kill rate) was 100%, the mortality at 0.002 % [6] was 80% and the Kill rate ([1]; 1.0 ppm in emulsion) was 100%.
`COP(=S)(OC)Oc1ccc([N+](=O)[O-])c(C)c1` [IV] was tested, and the Kill rate ([2]; 0.25 mg active ingredient per jar, 5 adult cockroaches) was “ineffective”.
For `CCOP(=O)(OCC1C(C)(C)C1(Cl)Cl)Oc1ccc([N+](=O)[O-])cc1` (centres unmarked) [Active ingredient 1, O-ethyl-O-[(2,2-dichloro-3,3-dimethyl-cyclopropyl)-methyl]-O-(4-nitrophenyl)phosphate], the mortality at 0.25 mg ([2]; Blatta orientalis, 0.25 mg active ingredient per jar, 5 adult cockroaches, read-out: Kill rate) was 80%, the mortality at 0.02 % [5, 12] was 100% and the mortality at 0.02 % [6] was 100%. It also gave a Kill rate ([1]; 10.0 ppm in emulsion) of 100%.
Work on `COP(=O)(OCC1CC1(Cl)Cl)Oc1ccccc1[N+](=O)[O-]` (centres unmarked) [Active ingredient 3, O-methyl-O-[(2,2-dichlorocyclopropyl)-methyl]-O-(2-nitrophenyl)phosphate] yielded a mortality at 0.005 % [5, 9] of 100%.
Compound `COP(=O)(OCC1(C)CC1(Cl)Cl)Oc1ccc([N+](=O)[O-])cc1Cl` (centres unmarked) [compound 32] has a mortality at 0.2 mg [3, 11] of 100%, a mortality at 0.008 % ([5]; Aphis fabae, 0.008 wt % in formulation, read-out: Kill rate) of 100% and a Kill rate ([1]; 10.0 ppm in emulsion) of 100%.
`COP(=O)(OCC1C(C)C1(Cl)Cl)Oc1ccc([N+](=O)[O-])cc1` (centres unmarked) [compound 31] gave a mortality at 0.2 mg [2, 10] of 100%, a mortality at 0.01 % [6] of 80% and a Kill rate ([1]; 5.0 ppm in emulsion) of 100%.
With `CCOP(=S)(OCC)SCC1CC1(Cl)Cl` (centres unmarked) [I] the mortality at 5 mg ([2]; Blatta orientalis, 5.0 mg active ingredient per jar, read-out: Kill rate) was 100%, the mortality at 2 mg ([3]; Musca domestica, 2.0 mg active ingredient per dish, read-out: Kill rate) was 100% and the mortality at 0.1 % ([5]; Aphis fabae, 0.1 wt % in formulation, read-out: Kill rate) was < 50%. The mortality at 0.1 % ([6]; 0.1 wt % in emulsion) was 50% and the “root attack (root-knots)” value ([7]; 0.1 % active ingredient concentration, ditto mark repeats "no root-knots") was “sporadic root-knots”.
Compound `COP(=O)(OCC1C(C)C1(Cl)Cl)Oc1ccc(Cl)cc1Cl` (centres unmarked) [compound 29] has a mortality at 0.02 % [5, 12] of 100%.
For `COP(=O)(OCC1CC1(Cl)Cl)Oc1cc(Cl)c(Cl)cc1Cl` (centres unmarked) [Active ingredient 4, O-methyl-O-[(2,2-dichloro-cyclopropyl)-methyl]-O-(2,4,5-trichlorophenyl)phosphate], the mortality at 0.02 mg [3, 8] was 100%, the LD50 [4] was 0.055 μg/fly and the mortality at 0.01 % [5, 9] was ~90%. The Kill rate ([1]; 5.0 ppm in emulsion) was 100%.
`COP(=O)(OCC1C(C)C1(Cl)Cl)Oc1ccc(SC)cc1` (centres unmarked) [compound 30] gave a mortality at 0.2 mg [3, 11] of 100%, a mortality at 0.01 % [5, 9] of 100% and a Kill rate ([1]; 10.0 ppm in emulsion) of 100%.
Work on `COP(=O)(OCC1C(C)(C)C1(Cl)Cl)Oc1ccc([N+](=O)[O-])cc1` (centres unmarked) [compound 7] yielded a mortality at 0.2 mg [2, 10] of 100%, a mortality at 0.2 mg [3, 11] of 100% and a mortality at 0.01 % [5, 9] of ~90%. The mortality at 0.01 % [6] was 80% and the Kill rate ([1]; 10.0 ppm in emulsion) was 100%.
`COP(=O)(OCC1C(C)(C)C1(Cl)Cl)Oc1ccc(SC)cc1` (centres unmarked) [compound 17] showed a mortality at 0.2 mg [3, 11] of 80% and a Kill rate ([1]; 2.5 ppm in emulsion) of 100%.
